Reference: US6348445B1, “Biologically active peptides with reduced toxicity in animals and a method for preparing same” (priority 1992, dated 2002)
≈ marks a conversion by molar mass, not a printed value. Where two headings read alike, the source gives them in different places. Where a SMILES comes first, the peptide text is derived from it. Where no end group is shown, it is not given here. [ ]: non-standard residue; d: D form. The star is where a group is joined. Octanoyl = CCCCCCCC(=O)*; Orn = NCCC[C@H](N)C(=O)O

Experiments:
[1] = system: S.aureus strain ATCC 25923; experiment: Minimal Inhibitory Concentration, microtiter broth dilution; type: cell-based; conditions: Mueller Hinton broth, 16-20 hours at 37° C.
Description: Table I, which follows, indicates the Minimal Inhibitory Concentration (MIC) in […] of various peptides against S.aureus strain ATCC 25923(S), P. aeruginosa strain ATCC 27853(P), E. coli ATCC strain 25922(E), and C. 4albicans (CA). […] The peptides are unsubstituted at the N-terminal; substituted with an acetyl group at the N-terminal, as indicated by Ac-; substituted with an octanoyl group at the N-terminal, as indicated by Oct-; substituted with spinogosine, as indicated by Sph-; substituted with a succinyl group, as indicated by Suc-; substituted with a hexanoyl group, as indicated by Hex-; substituted with a heptanoyl group, as indicated by Hep-; substituted with a valeryl group, as indicated by Val-; substituted with a myristryl group, as indicated by Myr-; or substituted with an ibuprofyl group, as indicated by Ibu-;
(§1) The procedure for the anti-bacterial assay is based upon the guidelines of the National Committee for Clinical Laboratory Standards, Document M7-T2, Volume 8, No. 8, 1988, which document is entirely incorporated herein by reference.
(§2) Stock solutions of peptides, with and without the appropriate substitutions, were prepared at a concentration of 512 μg/ml in sterile deionized distilled water and stored at −70° C.
(§3) The stock peptide solution was diluted in serial dilutions (1:2) down the wells of a microtiter plate so that the final concentrations of peptides in the wells were 0.25, 0.50, 1, 2, 4, 8, 16, 32, 64, 128 and 256 μg/ml. 1-5×10^5 CFUs/ml of either S. aureus ATCC 25923, E. coli ATCC 25922, P. aeruginosa ATCC 27853, or C. albicans, were added to the wells in full strength Mueller Hinton broth (BBL 11443) from a mid-log culture. The inoculum was standardized spectrophotometrically at 600 nm and was verified by colony counts. The plates were incubated for 16-20 hours at 37° C., and the minimal inhibitory concentration (MIC) for each peptide was determined. Minimal inhibitory concentration is defined as the lowest concentration of peptide which produces a clear well in the microtiter plate. The minimal inhibitory concentration of each of the peptides with and/or without the appropriate substitutions is given in Table I below.

[2] = system: P. aeruginosa strain ATCC 27853; type: cell-based
Method in brief: (§4)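 Broth microdilution per NCCLS M7-T2: final peptide levels 0.25 to 256 μg/ml (twofold steps), inoculum 1-5×10^5 CFUs/ml in full-strength Mueller Hinton broth. MIC read as lowest concentration leaving the well clear after 16-20 hours at 37° C.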

[3] = system: E. coli ATCC strain 25922; experiment: Minimal Inhibitory Concentration, microtiter broth dilution; type: cell-based
Method in brief: as §4

[4] = system: C. albicans; type: cell-based; conditions: C. albicans; Table I
Method in brief: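 Broth microdilution: mid-log organisms at 1-5×10^5 CFU/ml in Mueller Hinton broth exposed to 2-fold peptide series (0.25–256 μg/ml final). After 16-20 h at 37° C, MIC read as the lowest concentration leaving the well clear.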

[5] = system: E. coli strain 21915-1; experiment: survival of mice inoculated intraperitoneally with live E. coli; type: in vivo; conditions: i.v. at 1 and 5 hours post-inoculation, 10 mice
Method: CD-1 male mice (average body weight, 22.8g) were inoculated with live E. coli strain 21915-1 (2.3×10^5 CFU mouse) by injection intraperitoneally. Oct-(SEQ ID NO: 143)—NH2 then was injected intravenously via the tail vein at 1 and 5 hours post-inoculation. Control mice were inoculated and treated with 0.9% saline. Each different treatment group had 10 mice per group. All control mice died.

[6] = system: lipopolysaccharide from E. coli serotype 0111:B4; experiment: survival of mice after lipopolysaccharide and galactosamine; type: in vivo
Method: Oct-(SEQ ID NO: 143)—NH2 was injected intravenously into male C57BL/6J mice (average body weight 20.1 g) approximately two minutes prior to intraperitoneal injection of a solution of lipopolysaccharide (either 0.1 μg or 0.5 μg/mouse) from E. coli serotype 0111:B4 and galactosamine (8 mg/mouse). […] When these doses were administered prior to the administration of 0.1 μg lipopolysaccharide/mouse, the results were 40%, 90%, 100%, 100%, and 100% survival at five days post-lipopolysaccharide administration, respectively.

[7] = system: S. aureus ATCC 29213; type: cell-based
[8] = system: C. albicans ATCC 90028; type: cell-based; conditions: Table IV
Method: as §1, §2, §3
(§5) The in vitro anti-microbial activities of the methane sulfonate derivatives were determined according to the methods described in Examples 1 and 2. The activities against ATCC strains of S. aureus, E. coli, P. aeruginosa, and C. albicans, and the hemolysis of red blood cells were compared to the parent compound (Table IV). The activities for Compound 843 (Oct-SEQ ID NO:143) methane sulfonate against clinical strains of P. aeruginosa isolated from cystic fibrosis patients were compared to the parent compound (Table V). The activity for Compound 469 (Oct-SEQ ID NO:27) methane sulfonate against P. gingivalis was compared to the parent compound (Table VI).

[9] = system: red blood cells; experiment: hemolysis of red blood cells; type: cell-based
Method: as §5

[10] = system: clinical strains of P. aeruginosa isolated from cystic fibrosis patients; experiment: MIC against clinical isolates of P. aeruginosa; type: cell-based, Pseudomonas aeruginosa; conditions: clinical isolate
Method: as §1, §2, §3, §5

[11] = maximal tolerated dose, single intravenous administration of Compound 1324; type: in vivo, mice; conditions: mouse, in vivo; single intravenous bolus, CD-1 mice; read-out: MTD i.v. (maximum tolerated dose, non-lethal)
Method: Mice received single intravenous administrations of Compound 1324, the methane sulfonate analogue of Compound 843, and were monitored for survival for at least 4 days. There were no deaths at a dose of less than or equal to 180 mg/kg.
To determine the maximal tolerated dose (MTD) and estimate the lethal dose 50% (LD50) of Compound 1324 sodium when administered intravenously in a single-bolus in mice.
Animals: On arrival and study initiation, three groups Thirty-seven male CD-1 mice (Charles River Lab)had average body weights of 39, 28 and 28 gm, respectively.
Solution Prep: A 120 mg/ml of active Compound 1324 (active moiety corrected for) was made in saline. All concentrations from 5 mg/ml to 80 mg/ml were dilutions of the 120 mg/ml solution with saline. The highest concentration used in the intravenous administration was 20 mg/ml.
Mice were randomly assigned to one of ten groups (4 mice per group, except the highest dose group which only had one mouse). Mice were administered intravenously 10 ml/kg of either 0 (saline), 5, 6, 7, 8, 14, 16, 18, or 20 mg/ml solution for doses of […]. One mouse received 14.1 ml/kg of a 20 mg/ml solution for a dose of 282 mg/kg. Mice were monitored for survival for at least four days post-administration.

[12] = system: A-549 human lung carcinoma cells; type: cell-based; conditions: 24 h
Method: (§6) Human lung carcinoma cells, A-549 (ATCC), and human breast carcinoma cells, MDA-435 (from Sandoz), were grown in Ham's F12K medium (GIBCO-BRL) supplemented with […] fetal bovine serum. Human chronic myelogenous leukemia cells, K-562 (ATCC), were maintained in RPMI 1640 medium (GIBCO-BRL) supplemented with 10% fetal bovine serum. Human melanoma cell line, WM 1617 (from the Wistar Institute), was maintained in 2% Tumor media.
(§7) Cytotoxicity assays were performed on the cell lines described above using CytoLite (Packard Instrument Company) following the manufacture's instruction. Briefly, 2×10^4cells/well were seeded into black, 96-well ViewPlates (Packard Instrument Company) in 100 μl/well growth medium. Ser. dilutions of Magainin peptides were then added into the cells and the plates incubated for 24 hours in a humidified 5% CO2 atmosphere at 37° C. Following incubation, 25 μl/well of CytoLite activator solution was added followed by 125 μl/well of amplifier solution. Luminescence was measured on TopCount Microplate Scintillation and Luminescence counter (Packard Instrument Company) using a 1 second count time in SPC (single photon counting) mode at 25 ° C. All assays were performed in triplicate. The peptides tested in this assay were MSI-78(SEQ ID NO: 154 —NH2), MSI-1858(SEQ ID NO: 154 —NH2 Methane Sulfonate), MSI-344(SEQ ID NO: 154 —OH) and MSI-1857(SEQ ID NO: 154 —OH Methane Sulfonate). The results of these assays are shown in FIGS. 2-9 with the corresponding IC50 values in Table VIII. In all cases the activity of the methane sulfonated peptide was as good or better than the parent peptide as indicated by both the survival curves and the IC50 values.

[13] = system: K-562 human chronic myelogenous leukemia cells; type: cell-based; conditions: 24 h
Method: as §6, §7

[14] = system: MDA-435 human breast carcinoma cells; type: cell-based; conditions: 24 h
Method: as §6, §7

[15] = system: WM 1617 human melanoma cells; type: cell-based; conditions: 24 h
Method: as §6, §7

Compound: CCCCCCCC(=O)N[C@@H](CCCN)C(=O)N[C@@H](CCCN)C(=O)N[C@@H](CC(C)C)C(=O)N[C@@H](CC(C)C)C(=O)N[C@@H](CCCN)C(=O)N[C@@H](CCCN)C(=O)N[C@@H](CC(C)C)C(=O)N[C@@H](CCCN)C(=O)N[C@@H](CCCN)C(=O)N[C@@H](CC(C)C)C(N)=O [Oct-(SEQ ID NO: 143)-NH2] (Octanoyl-[Orn][Orn]LL[Orn][Orn]L[Orn][Orn]L-NH2)
- Minimal Inhibitory Concentration S [1]: 16 µg/mL
- Minimal Inhibitory Concentration P ([2]; P. aeruginosa strain ATCC 27853, Table I): 2 µg/mL
- MIC P. aeruginosa ATCC 27853 ([2]; Table IV): 2 µg/mL (≈ 1.56 µM)
- MIC Pseudomonas aeruginosa ATCC 27853 ([2]; Table V): 4 µg/mL (≈ 3.12 µM)
- Minimal Inhibitory Concentration E ([3]; E. coli ATCC strain 25922, Table I): 16 µg/mL
- MIC E. coli ATCC 25922 ([3]; Table IV): 4 µg/mL (≈ 3.12 µM)
- Minimal Inhibitory Concentration CA [4]: 16 µg/mL
- survival at six days post-inoculation ([5]; 1 mg/kg in toto): 20%
- survival at six days post-inoculation ([5]; 5 mg/kg in toto): 40%
- survival at six days post-inoculation ([5]; 10 mg/kg in toto): 90%
- survival at six days post-inoculation ([5]; 20 mg/kg in toto): 90%
- survival at five days post-lipopolysaccharide administration ([6]; 5 mg/kg i.v. (by order of the list), 0.1 μg lipopolysaccharide/mouse): 90%
- survival at five days post-lipopolysaccharide administration ([6]; 5 mg/kg i.v., 0.5 μg lipopolysaccharide/mouse): 0%
- survival at five days post-lipopolysaccharide administration ([6]; 7.5 mg/kg i.v. (by order of the list), 0.1 μg lipopolysaccharide/mouse): 100%
- survival at five days post-lipopolysaccharide administration ([6]; 7.5 mg/kg i.v., 0.5 μg lipopolysaccharide/mouse): 30%
- survival at five days post-lipopolysaccharide administration ([6]; 10 mg/kg i.v. (by order of the list), 0.1 μg lipopolysaccharide/mouse): 100%
- survival at five days post-lipopolysaccharide administration ([6]; 10 mg/kg i.v., 0.5 μg lipopolysaccharide/mouse): 0%
- survival at five days post-lipopolysaccharide administration ([6]; 12.5 mg/kg i.v. (by order of the list), 0.1 μg lipopolysaccharide/mouse): 100%
- survival at five days post-lipopolysaccharide administration ([6]; 12.5 mg/kg i.v., 0.5 μg lipopolysaccharide/mouse): 50%
- survival at five days post-lipopolysaccharide administration ([6]; 15 mg/kg i.v., 0.5 μg lipopolysaccharide/mouse): 60%
- MIC S. aureus ATCC 29213 ([7]; Table IV): 16 µg/mL (≈ 12.5 µM)
- MIC C. albicans ATCC 90028 [8]: 64 µg/mL (≈ 50 µM)
- % Hemolysis (500 μg/ml) [9]: 25%
- MIC Pseudomonas aeruginosa LS-31 [10]: 16 µg/mL (≈ 12.5 µM)
- MIC Pseudomonas aeruginosa LS-40 [10]: 4 µg/mL (≈ 3.12 µM)
- MIC Pseudomonas aeruginosa LS-43 [10]: 2 µg/mL (≈ 1.56 µM)
- MTD [11]: 20 mg/kg

Compound: GIGKFLKKAKKFGKAFVKILKK [MSI-78]
- MIC P. aeruginosa ATCC 27853 ([2]; ATCC 27853): 16 to 32 µg/mL
- MIC E. coli ATCC 25922 ([3]; ATCC strain 25922): 32 µg/mL
- MIC S. aureus ATCC 29213 ([7]; ATCC 29213): 16 µg/mL
- IC50 [12]: 3 µM
- IC50 [13]: 9 µM
- IC50 [14]: 4 µM
- IC50 [15]: 3 µM
